# Data taken from patent US20250017964A1, “ENGINEERING OR INDUCING PDGF AND/OR PDGFR SIGNALING TO ENHANCE NK CELL THERAPY” (City of Hope, priority 2021, published 2025).
# Columns and labels:
# PDGFRB promoter = test: ChIP-qPCR, binding of p65 to the PDGFRB promoter; assay type: cell-based, human; settings: IL-15-stimulated NK cells (1 h); not in resting NK cells
# Protocol: FIGS. 2A-2I. IL-15-induced PDGFRβ expression is mediated by PI3K/AKT signaling. (A-B) Primary NK cells were treated with IL-15 (10 ng/ml) for the indicated times. mRNA levels of PDGFRB at different time points (A) (n=3) or at 1 h (B) (n=10) were examined by qPCR. (C-D) Primary NK cells were pretreated with actinomycin D (ActD, 5., g/ml) (C) or cycloheximide (CHX, 20 μg/ml) (D) for 1 h, washed twice with RPMI-1640, and then treated with IL-15 (10 ng/ml) for 24 h. DMSO was used as a control. Expression levels of PDGFRβ were examined by flow cytometry (n=5). Data shown are representative histograms and percentage of inhibition with the equation: % inhibition=[…]. (E) Primary NK cells were pretreated with wortmannin (1 μM), afuresertib (10 μM), TPCA-1 (1 μM), rapamycin (10 μM), torin1 (10 μM), decernotinib (10 μM), C118-9 (10 μM), STAT5-IN-1 (10 μM), AZD6244 (10 μM), or CI-1040 (10 μM) for 1 h, washed twice with RPMI 1640, and then treated with IL-15 (10 ng/ml) for 24 h. DMSO was used as control. Data shown are % of inhibition (n=5). The mean value of the inhibitory rate is shown. […] (G-I) Binding of p65 to the PDGFRB promoter in IL-15-treated NK cells (G) or resting NK cells (H) as determined by ChIP-qPCR or PCR (I) (n=3). […]
# Primary NK cells were treated with IL-15 for 1 h. […] The enriched chromatin was analyzed by qPCR using the following primers: […]
# [1] = tested on: PDGFRβ expression in human NK cells; test: Cytokine-induced PDGFRβ expression in purified human NK cells, flow cytometry; assay type: cell-based; settings: 24 h
# Description: Data shown are the percentages of PDGFRβ^+ NK cells among total NK cells (n=5). […] Bar=20 μm. […] Data represent three independent experiments. Data shown are means SD.
# FIGS. 7A-7F. […] Data shown are representative histograms and mean fluorescence intensity (MFI) of PDGFRα. […] Expression levels of PDGFRβ were examined by flow cytometry (n=6). […] Data shown are the percentages of PDGFRβ^+ NK cells among total NK cells (n=5). […] Data shown are representative histograms with MFI of PDGFRβ expression. (F) Expression levels of PDGFRβ on NK cells from IL-15 transgenic (Tg) mice were determined by flow cytometry. Data shown are representative histograms. Data represent three independent experiments.
# NK cells were cultured in RPMI 1640 with 10% heat-inactivated FBS (Gibco) at 37° C. in a 5% CO2 humidified incubator. For NK cell transduction, PDGFRB cDNA ORF clone (Cat: HG10514-G) was purchased from Sino Biological and cloned into pCDH-CMV-MCS-EF1-copGFP lentivirus vector (System Biosciences). To produce lentivirus, we transfected the lentiviral transfer vector DNA, together with psPAX2 packaging (Addgene) and pMD2.G envelope plasmid DNA (Addgene), into HEK293T cells; using a polyethyenimine (PEI) transfection protocol (Polysciences). Concentrated lentivirus was added to primary NK cells cultured in RPMI 1640 medium supplemented with 10% FCS and 10 jig/mL polybrene with 2,000×g centrifugation for 2 h. Cells were cultured for an additional 48 h. […] The cells were then collected for flow cytometry analysis. For the inhibition assay, NK cells were pretreated with the indicated inhibitors for 1 h, washed twice with RPMI 1640. and then treated with IL-15 for 24 h.
# Cells were stained with the indicated cell-surface markers and/or fixed/permeabilized using a Fixation/Permeabilization Kit (eBioscience). For intracellular staining of IFN-γ and PDGF-D, 5 μg/ml Brefeldin A (BioLegend) was added for 4 h before cell harvest. Intracellular staining of Ki67 was performed by fixing and permeabilizing with the Foxp3/Transcription Factor Staining Kit (eBioscience).
substance,measurement,setting,value
IL-15: recombinant human IL-15 (200-15); recombinant murine IL-15 in the mouse NK cell test,p65 associated with the PDGFRB promoter versus normal IgG control,PDGFRB promoter,significantly higher levels
same,PDGFRβ expression,"[1]; cytokine 10 ng/ml, IL-15 effect dose- and time-dependent",induced robust expression of PDGFRβ
same,PDGFRβ expression in CD56^bright NK cells,"[1]; sorted CD56^bright NK cells, IL-15 10 ng/ml",not CD56^bright NK cells
same,PDGFRβ expression in CD56^dim NK cells,"[1]; sorted CD56^dim NK cells, IL-15 10 ng/ml",induced PDGFRβ expression only in CD56^dim NK cells
